# Measured values: publication PMC12177781, “Chalcogen Derivatives for the Treatment of African Trypanosomiasis: Biological Evaluation of Thio- and Seleno-Semicarbazones and Their Azole Derivatives” (ACS Omega, 2025)
# Values joined by “and” are separate entries in the source; they are usually repeats but may differ in a detail not shown here. Equal entries are not always repeated. Where two headings read alike, the source gives them in different places.
# What was measured:
# [1] = DPPH radical scavenging (antioxidant) assay; conditions: after 2 h, mean ± SEM
# [2] = HepG2 cytotoxicity, CellTiter-Glo, 48 h; conditions: human, HepG2 cells
# HepG2 cells = test: HepG2 cytotoxicity, CellTiter-Glo, 48 h; conditions: for inhibition at 10 µM: Homo sapiens, HepG2, read-out: HepG2 inhibition (%); for HepG2 inhibition (%): growth inhibition at 10 µM, ± SD
# [3] = HEK293 cytotoxicity, CellTiter-Glo, 48 h; conditions: human, HEK293 cells
# HEK293 cells = test: HEK293 cytotoxicity, CellTiter-Glo, 48 h; conditions: for inhibition at 10 µM: Homo sapiens, HEK293, read-out: HEK293 inhibition (%); for HEK293 inhibition (%): growth inhibition at 10 µM, ± SD
# [4] = test system: T. brucei brucei Lister 427; test: T. b. brucei Lister 427 bloodstream-form growth inhibition, SYBR Green viability assay, 72 h; assay type: cell-based, Trypanosoma brucei brucei
# [5] = target: T. brucei cathepsin L-like protease (TbrCATL) (Trypanosoma brucei rhodesiense, UniProt Q95PM0); test: TbrCATL inhibition assay, Z-FR-AMC substrate; assay type: biochemical; conditions: for SI TbrCATL: IC50 hCatL/IC50 TbrCATL; for IC50: mean ± SD, two experiments in triplicate (n = 6)
# T. brucei cathepsin L-like protease (TbrCATL), sequence (Q95PM0 1-450): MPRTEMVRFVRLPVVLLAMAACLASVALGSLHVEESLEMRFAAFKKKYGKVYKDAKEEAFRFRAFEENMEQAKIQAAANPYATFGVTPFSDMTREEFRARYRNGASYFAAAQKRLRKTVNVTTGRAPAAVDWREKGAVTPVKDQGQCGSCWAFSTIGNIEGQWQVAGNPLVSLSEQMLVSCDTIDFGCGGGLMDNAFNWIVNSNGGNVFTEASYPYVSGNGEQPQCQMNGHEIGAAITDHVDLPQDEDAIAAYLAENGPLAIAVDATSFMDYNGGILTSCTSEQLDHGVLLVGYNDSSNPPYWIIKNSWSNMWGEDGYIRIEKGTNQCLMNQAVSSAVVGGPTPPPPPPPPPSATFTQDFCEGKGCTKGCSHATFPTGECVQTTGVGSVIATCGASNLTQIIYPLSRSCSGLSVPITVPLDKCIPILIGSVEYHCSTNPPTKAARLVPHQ
# Protocol: (§1) All experiments were performed in a 384-well black microplate, using a Synergy HTX (Biotek) plate reader at 25 °C with absorption/emission wavelengths of 360/460 nm. Assays were performed in triplicate wells and DMSO was used as a vehicle control. Enzyme activity was measured and normalized to DMSO controls, and the inhibitor E-64 (10 μM) was used as a positive control for all assays. Experiments were performed in triplicate, with at least two independent assays (n = 6 data points). IC50 values were determined through nonlinear regression. The data obtained were analyzed using GraphPad Prism 9.0 (GraphPad Software, La Jolla, California, US).
# The screening assay was performed using 0.5 nM of TbrCATL diluted in 0.1 M sodium acetate, 1 mM dithiothreitol (DTT), and 0.01% Triton X-100, pH 5.5. TbrCATL was expressed and purified as described. Enzyme the compound (10 μM), were incubated for 10 min at room temperature. Then the substrate, Z-Phe-Arg-amidomethylcoumarin (Z-FR-AMC; Sigma-Aldrich, C9521), was added (30 μL diluted in the same assay buffer) to yield a final concentration of 2.5 μM and the assay allowed to proceed for 10 min. […] For those compounds inhibiting enzyme activity by >85%, DR assays were performed over 15 2-fold serial dilutions starting at 0.5 or 20 μM.
# [6] = target: T1, human cathepsin L (hCatL) (Homo sapiens, UniProt P07711); test: hCatL inhibition assay, Z-FR-AMC substrate; assay type: biochemical; conditions: mean ± SD, two experiments in triplicate (n = 6)
# T1 construct: purchased R&D Systems 952-CY
# T1 sequence (P07711 114-333): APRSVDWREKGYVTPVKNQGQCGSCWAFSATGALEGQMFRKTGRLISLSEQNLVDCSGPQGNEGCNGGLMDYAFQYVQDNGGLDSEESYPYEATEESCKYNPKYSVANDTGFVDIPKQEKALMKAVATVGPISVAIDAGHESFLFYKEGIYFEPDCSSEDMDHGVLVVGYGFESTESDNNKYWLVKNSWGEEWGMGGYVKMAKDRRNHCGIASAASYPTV
# Protocol: as §1
# Recombinant hCatL was purchased from R&D Systems (952-CY) and activated according to the manufacturers protocol. This enzyme, hCatL, is used to test compounds’ selectivity because it is the human homologue of TbrCATL. The assay was modified from, using 25 pM of the enzyme diluted in 40 mM sodium acetate, 5 mM DTT, 100 mM NaCl, 1 mM EDTA and 0.01% Triton X-100, pH 5.5. Enzyme and compound (10 μM), were incubated for 30 min at room temperature. Then Z-FR-AMC was added (30 μL diluted in the same assay buffer) to yield a final concentration of 25 μM and the assay allowed to proceed for 10 min. DR assays were performed over 15 2-fold serial dilutions starting at 0.5 or 20 μM.
# in vitro [7] = conditions: human, CC50 HEK293 (μM)
# in vitro [8] = conditions: human, CC50 HepG2 (μM)
# C2C12 cells = conditions: read-out: Toxicity CC50 C2C12 cells; cited from earlier work
# T. cruzi CAI/72 = conditions: cited from earlier work
# cruzain (Cz) = conditions: cited from earlier work
# [9] = pharmacokinetic study; ref previous work; cited from earlier work
# [10] = Trypanosoma brucei, growth inhibition at 10 µM, ± SD
# [11] = at 10 μM, read-out: TbrCATL inhibition (%)
# [12] = growth inhibition at 10 µM, ± SD
# [13] = read-out: TbrCATL inhibition (%), at 10 μM
# [14] = Trypanosoma brucei, three independent experiments in duplicate (n = 6) ± SD, read-out: EC50 T. brucei
# [15] = growth inhibition at 10 µM, ± SD, 10 µM
SMILES,% inhibited DPPH ([1]; 0.015 mg/ml) [%],% inhibited DPPH ([1]; 0.03 mg/ml) [%],% inhibited DPPH ([1]; 0.06 mg/ml) [%],inhibition at 10 µM (HepG2 cells) [%],inhibition at 10 µM (HEK293 cells) [%],"inhibition at 10 µM [4, 10] [%]",SI TbrCATL [5],TbrCATL inhibition (%) ([5]; at 10 μM),"inhibition at 10 µM [5, 13] [%]",IC50 [6] [µM],"T. brucei inhibition (%) [4, 15] [%]",further results
"O=C1O[C@H]([C@@H](O)CO)C(O)=C1O [ASC, ascorbic acid, reference compound]",76.00 ± 3.52,80.33 ± 0.33,80.33 ± 0.67,,,,,,,,,
"CC(C)C[C@H](NC(=O)[C@H](Cc1ccccc1)NC(=O)c1cnccn1)B(O)O [Bortezomib, reference compound]",,,,100 ± 1,100 ± 2,,,,,,,CC50 at 48 h [2]: 0.015 ± 0.003 µM; CC50 at 48 h [3]: 0.015 ± 0.002 µM
"N=C(N)c1ccc(OCCCCCOc2ccc(C(=N)N)cc2)cc1 [Pentamidine, reference compound]",,,,,,,,,,,,"inhibition at 10 µM ([4]; Trypanosoma brucei): 100 ± 2%; EC50 ([4]; Trypanosoma brucei, read-out: EC50 T. brucei (μM)): 0.014 ± 0.002 µM"
C/C(=N\Nc1nc(C)cs1)c1ccc(C)cc1 [SC1],55.00 ± 1.53,54.33 ± 1.86,60.00 ± 4.16,4 ± 15,24 ± 7,30 ± 6,,,,,,"inhibition at 10 µM [5, 11]: 32.9%"
COc1ccc(C(C)=NNc2nc(C)cs2)cc1.Cl [SC2],,,,,,,,,,,,"T. brucei inhibition (%) [4, 12]: 27 ± 5%; HepG2 inhibition (%) (HepG2 cells): 6 ± 3%; HEK293 inhibition (%) (HEK293 cells): 33 ± 8%"
C/C(=N\Nc1nc(C)cs1)c1ccc(Br)cc1 [SC3],68.00 ± 3.06,69.33 ± 2.33,67.00 ± 2.31,46 ± 7,64 ± 2,38 ± 9,,,,,,"inhibition at 10 µM [5, 11]: 54%"
C/C(=N\Nc1nc(C)cs1)c1cccc([N+](=O)[O-])c1 [SC5],66.33 ± 1.86,68.67 ± 2.03,66.67 ± 1.86,17 ± 2,30 ± 3,40 ± 8,49,87.70,> 85,4.07 ± 0.383,,IC50 ([5]; read-out: IC50 TbrCATL): 82.6 ± 4.05 nM
C/C(=N\Nc1nc(C)cs1)C12CC3CC(CC(C3)C1)C2.Cl [SC11],,,,,,,,,,,,"T. brucei inhibition (%) [4, 12]: 19 ± 8%; HepG2 inhibition (%) (HepG2 cells): 0 ± 13%; HEK293 inhibition (%) (HEK293 cells): 39 ± 3%"
C/C(=N\NC(N)=S)c1ccc(C)cc1 [SO1],,,45.00 ± 8.33,50 ± 4,30 ± 3,44 ± 7,,,,,,"inhibition at 10 µM [5, 11]: 80%"
C/C(=N\NC(N)=S)c1ccc(Br)cc1 [SO3],,,29.33 ± 24.77,65 ± 4,76 ± 2,28 ± 4,19,95.54,> 85,0.136 ± 0.0199,,IC50 ([5]; read-out: IC50 TbrCATL): 7.33 ± 0.27 nM
C/C(=N\NC(N)=S)c1cccc([N+](=O)[O-])c1 [SO5],,,23.33 ± 19.46,39 ± 9,14 ± 9,31 ± 5,4,100.00,> 85,0.0207 ± 0.00436,,IC50 ([5]; read-out: IC50 TbrCATL): 5.83 ± 0.35 nM
C/C(=N\Nc1nc(C)c[se]1)c1ccc(C)cc1 [SeC1],71.67 ± 2.85,71.67 ± 2.40,72.33 ± 2.33,65 ± 9,77 ± 2,72 ± 6,,51.07,,,> 70,"EC50 [4, 14]: 9.8 ± 0.63 µM; TbrCATL inhibition (%) ([5]; at 10 μM, listed as Se C1, 10 µM): ≤ 85%; CC50 (in vitro [7]): 12 ± 4.94 µM; CC50 (in vitro [8]): 11 ± 0.88 µM"
C/C(=N\Nc1nc(C)c[se]1)c1ccc(Br)cc1 [SeC3],35.00 ± 18.82,71.00 ± 3.06,75.67 ± 1.45,80 ± 2,88 ± 3,,4,101.02,> 85,0.793 ± 0.0665,99 ± 2,"EC50 [4, 14]: 6.04 ± 0.72 µM; T. brucei inhibition (%) ([4]; growth inhibition at 10 µM, ± SD, listed as Se C3, 10 µM): > 70%; IC50 ([5]; IC50 TbrCATL (nM)): 201.7 ± 0.92 nM; CC50 (in vitro [7]): 5.9 ± 1.22 µM; CC50 (in vitro [8]): 4.68 ± 0.14 µM; CC50 (C2C12 cells): > 10 µM"
C/C(=N\Nc1nc(C)c[se]1)c1cccc([N+](=O)[O-])c1 [SeC5],77.33 ± 0.88,78.00 ± 1.73,78.33 ± 1.76,77 ± 6,81 ± 7,,25,98.02,> 85,0.175 ± 0.0437,100 ± 2,"EC50 [4, 14]: 10.5 ± 1.02 µM; T. brucei inhibition (%) ([4]; growth inhibition at 10 µM, ± SD, listed as Se C5, 10 µM): > 70%; EC50 (T. cruzi CAI/72): 0.31 ± 0.18 µM; IC50 (cruzain (Cz)): 0.00899 ± 0.00556 µM; CC50 (in vitro [7]): 9 ± 1.36 µM; CC50 (in vitro [8]): 11.3 ± 0.97 µM; CC50 (C2C12 cells): > 10 µM; oral bioavailability [9]: favorable oral bioavailability"
C/C(=N\Nc1nc(C)c[se]1)C12CC3CC(CC(C3)C1)C2 [SeC11],,,,,,,,,,,,"T. brucei inhibition (%) [4, 12]: 37 ± 0%; HepG2 inhibition (%) (HepG2 cells): 66 ± 2%; HEK293 inhibition (%) (HEK293 cells): 64 ± 10%"
C/C(=N\NC(N)=[Se])c1ccc(C)cc1 [SeO1],45.67 ± 9.56,78.00 ± 1.16,77.33 ± 1.76,80 ± 1,100 ± 1,,5,97.08,> 85,0.0845 ± 0.017,100 ± 1,"EC50 [4, 14]: 0.98 ± 0.12 µM; T. brucei inhibition (%) ([4]; growth inhibition at 10 µM, ± SD, listed as Se O1, 10 µM): > 70%; IC50 ([5]; IC50 TbrCATL (nM)): 17.9 ± 3.62 nM; CC50 (in vitro [7]): 4.27 ± 0.22 µM; CC50 (in vitro [8]): 4.17 ± 0.6 µM"
C/C(=N\NC(N)=[Se])c1cccc([N+](=O)[O-])c1 [SeO5],22.00 ± 17.67,63.33 ± 6.89,75.67 ± 1.67,85,100,,2,101.47,> 85,0.00051 ± 8e-05,100 ± 1,"EC50 [4, 14]: 5.83 ± 0.72 µM; T. brucei inhibition (%) ([4]; growth inhibition at 10 µM, ± SD, listed as Se O5, 10 µM): > 70%; IC50 ([5]; IC50 TbrCATL (nM)): 0.51 nM and 0.3 nM; IC50 (cruzain (Cz)): 0.00091 ± 0.00018 µM; CC50 (in vitro [7]): 2.29 ± 0.26 µM; CC50 (in vitro [8]): 5.54 ± 1.47 µM; CC50 (C2C12 cells): > 10 µM"
C/C(=N\NC(N)=[Se])C12CC3CC(CC(C3)C1)C2 [SeO11],,,,,,,,,,,100 ± 1,"T. brucei inhibition (%) ([4]; growth inhibition at 10 µM, ± SD, listed as Se O11, 10 µM): > 70%; EC50 ([4]; three independent experiments in duplicate (n = 6) ± SD, read-out: EC50 T. brucei): 5.16 ± 1.06 µM; HepG2 inhibition (%) (HepG2 cells): 66 ± 5%; CC50 (HepG2 cells; read-out: CC50 HepG2, three independent experiments in duplicate): 6.01 ± 0.69 µM; HEK293 inhibition (%) (HEK293 cells): 100 ± 4%; CC50 (HEK293 cells; read-out: CC50 HEK293, three independent experiments in duplicate): 10.5 ± 0.36 µM"
"Cc1c(C)c2c(c(C)c1O)CCC(C)(C(=O)O)O2 (stereo not shown) [TRO, Trolox, reference compound]",79.33 ± 1.33,79.33 ± 0.882,79.67 ± 0.67,,,,,,,,,
